Entries after “also recorded” stand apart in the source; their conditions may differ. Where two headings read alike, the source gives them in different places.
Tests used:
XA transport system = assay: XA transport in differentiated NCB-20 cells; format: cell-based
Procedure: The cell culture was prepared by using a culture dish of NCB-20 cells at 80% confluence. The culture medium was removed and replaced with 10 ml of DMEM supplemented with 10% FCS. Cells were then detached and suspended by repeated passage of the medium through a 2 mm gauge needle. Cells were then counted in a hemocytometer. The final suspension was adjusted to a cell density of 3.10^4 cells/ml in DMEM medium supplemented with 10% FCS and 1 mM cAMP. Petri dishes were seeded with 2 ml of this suspension and incubated at 37° C. in a moisture-saturated CO2 atmosphere. Cells were used four days after inoculation.
The culture medium of 4-day NCB-20 cell cultures differentiated in cAMP was replaced by one of the buffer solutions described hereinabove (Krebs with or without Na^+, to respectively evaluate Na^+-dependent active transport and passive transport, which occurs mainly through diffusion) according to the type of experiment planned. Culture dishes were placed in a water bath at 37° C. for 10 minutes. The buffer was then replaced by the same buffer solution containing [^3H]-XA and XA at concentrations ranging from […]. [^3H]-XA was present at very low concentration and served only as a tracer of the cold (non-radiolabelled) XA. After 1 minute of incubation, the solutions were aspirated and the cells washed three times for 10 seconds with 1 ml of the same buffer (Krebs with or without Na^+), kept on ice. Active transport requires energy (ATP) and is markedly slowed at temperatures below 37° C. The washed cell layer was frozen in dishes then, the next day, distilled water was added to obtain a solution of cellular debris containing the intracellular radiolabel ([^3H]-XA). Freezing facilitated homogenization by repeated passage of the solution through a pipette. A 900 μl aliquot was added to scintillation fluid (Rotiszint®, 4 ml). The remainder of the solution was sampled to assay protein by the BCA method (Uptima). The radioactivity measured in the scintillation counter was converted by means of a suitable calibration curve into picomoles of XA taken up by the cells per mg of protein.
For each incubation time, transport was measured on nine dishes of NCB-20 cells with Na^+ and without Na^+. Ten different time points were studied: 0-10-30 seconds and 1, 2, 3, 5, 8, 10, 12 minutes. Four different experiments were carried out.
For each XA concentration, XA transport was measured on nine dishes of NCB-20 cells with Na^+ and nine dishes without Na^+. Seven different concentrations were tested: 1-5-12.5-25-50-100-200 μM. Four independent experiments were carried out.
Four milliliters of scintillator were added to the tubes containing 900 μl of the cell suspension obtained. The control tube contained 900 μl of doubly-distilled water, and the tubes used to measure specific activity contained 10 μl of the radioactive solutions used as reagent during the experiment and 890 μl of doubly-distilled water. The tubes were closed, vortexed and left overnight at 4° C. before being counted in the scintillation counter. This count measures intracellular radioactivity which is directly proportional to the quantity of XA that entered the cell through passive or active transport. To calculate the amount of active transport, passive transport (Krebs without Na^+) is simply subtracted from total transport (Krebs with Na^+).
Other endogenous molecules which might be transported by the XA transporter were tested. […] The results are shown in the histogram in FIG. 34 as the percentage entering the cells relative to transport in the presence of radiolabelled XA alone (=100%).

rat [1] = assay: Object recognition test; conditions: in vivo
Procedure: Ennaceur and Delacour, Behav. Brain Res. 1988, 31: 47–59.
Doses of 37.5 and 75 mg/kg i.p. were used.

[2] = test system: xanthurenic acid binding site(s); assay: [3H]-XA binding to synaptic membranes, without ions; set-up: species or system rat
rat [3] = assay: Open field test of global reactivity (XA); conditions: in vivo
rat [4] = conditions: in vivo; cited from earlier work
[5] = test system: extracellular dopamine release in the PFC; assay: Microdialysis of dopamine, DOPAC and HVA in PFC after local XA; conditions: rat, in vivo
Procedure: • Animals: Adult male Wistar rats weighing 250 to 275 g were housed in pairs in plastic cages with a standard 7 a.m.–7 p.m. light cycle and free access to food and water. Animals studies were conducted in accordance with the requirements of the EEC directive of 24 Nov. 1986 (86/609/EEC). • Chemicals: XA, 6-OHDA hydrobromide, 2,4,5-trihydroxyphenylethylamine and desipramine were purchased from Sigma. NCS-486 was produced by the Laboratoire de Pharmacochimie of the CNRS in Strasbourg. • Surgical protocol: An L-shaped cannula with 4 mm tip (CMA 12, Carnegie, Sweden) was used for the experiments. The dialysis membrane, 500 μm in diameter, was made of polycarbonate-polyether with a 20 Kda cutoff. The probe guide was implanted in the PFC under stereotactic guidance. Animals were anesthetized with ketamine hydrochloride (150 mg/kg i.p.)
The experiments were carried out in conscious rats with and without induced lesions, 24 to 48 hours after surgical insertion of the microdialysis probe. The composition of the microdialysis medium was as follows: 147 mM NaCl; 1.2 mM CaCl2; 1.2 mM MgCl2; 4.0 mM KCl, pH 6.5. The dialysis rate was 1 μl/min (CMA 100 pump, Carnegie). Dialysates were collected in 20 minute fractions and stored immediately in liquid nitrogen pending analysis.
These compounds were analyzed by HPLC with electrochemical detection. The chromatographic system consisted of a 25 cm×4.6 mm C18 column maintained at a constant temperature of 30° C. The mobile phase was 50 mM NaH2PO4 containing 0.1 mM EDTA and 6% methanol, the pH of the solution was adjusted to 4.85.
Retrodialyzed XA concentrations were respectively 1 μM (black circles), 5 μM (black squares) and 20 μM (black triangles). XA was applied during a 20 minute dialysis. The results are expressed as the percentage of mean baseline dopamine release (determined on eight 20-min dialysis fractions prior to stimulation by XA) (FIG. 20).

[6] = test system: Grp 94 and calreticulin expression; conditions: cited from earlier work
[7] = in vivo, ip; cited from earlier work
rat [8] = conditions: in vivo; cited from earlier work; remark: listed apart in the source
rat [9] = assay: Social interactions between two congeners; conditions: in vivo
Description: This tendency was confirmed by a test evaluating social interactions between two congeners (Ramos et al., Behav. Brain Res., 1997, 85: 57–69).

For `O=C(O)c1cc(O)c2cccc(O)c2n1` [XA, xanthurenic acid], which “increase of transport in the presence of sodium” value (XA transport system) is on record?
The value was “about 20%”.

And the Km (XA transport system; read-out: Km of intracellular transport)?
The Km was 105 µM.

What about the object recognition score (rat [1]) of the same molecule?
Its object recognition score is “significant increase in the object recognition score”.

What about the “kob (observed association rate)” value ([2]; pH 7.4) of the same molecule?
The value was 0.53 ± 0.16 min⁻¹.

What about the “time to binding equilibrium” value ([2]; pH 7.4) of the same molecule?
Its value is 10 to 15 min.

What about the Kd ([2]; pH 7.4, read-out: Kd (saturation experiment)) of the same molecule?
Its Kd is 743 nM.

What about the IC50 ([2]; read-out: IC50, two site binding model, first site) of the same molecule?
The IC50 was 300 nM.

What about the IC50 ([2]; read-out: IC50, two site binding model, second site) of the same molecule?
The IC50 was 57000 nM.

What about the Kd ([2]; read-out: Kd=koff/kon) of the same molecule?
Its Kd is roughly 330 nM.

And the “doses to obtain an anxiolytic effect in animals” value (rat [3])?
The value was “less than 50 mg/kg”.

And the “exploration of the center of the cage / open field” value (rat [3])?
Its value is “significantly increased; also recorded: promotes movement of the animal to the center of the lighted open field”.

And the “sedation in the open field test” value (rat [3])?
Its value is “absence of sedation”.

And the “analgesic effect in hotplate and tail flick tests” value (rat [4])?
The value was “analgesic effect”.

And the “DOPAC release in PFC” value [5]?
The value was “decreased slightly”.

What about the “HVA release in PFC” value [5] of the same molecule?
Its value is “decreased slightly”.

What about the “effect on dopamine release in PFC” value [5] of the same molecule?
The value was “had no effect on dopamine release”.

And the “increase of extracellular dopamine release in PFC” value [5]?
Its value is “approximately 250%”.

What about the “expression of Grp 94 and of calreticulin” value [6] of the same molecule?
Its value is “induces an increase in the expression”.

And the “xanthurenic acid concentrations required to produce these effects” value [6]?
Its value is “in the millimolar range”.

And the “latency time to onset of epileptic seizures” value [7]?
Its value is “prolonged the latency time to onset of epileptic seizures”.

What about the ECG (rat [8]) of the same molecule?
Its ECG is “does not modify the ECG”.

And the “duration of social interactions” value (rat [9])?
The value was “significant increase in the duration of social interactions; also recorded: induces an increase in the duration of social interactions”.

And the “sedation in the social interaction test” value (rat [9])?
Its value is “significant sedative effect”.

From patent US7122326B2 (Universite Louis Pasteur, priority 2001, dated 2006)
